This is an account of results in patent US6495590B1, “Use of amtolmetin guacyl for the production of anti-inflammatory drugs for intestinal inflammations” (Medosan Ricerca S.r.l., priority 1998, dated 2002).

In assay [1] the test system is human ulcerative colitis. Briefly: Double-blind, controlled, randomized clinical trial in ulcerative colitis. In kind it is in vivo. Particulars: MED 15 1200 mg/day plus 5-aminosalicylic acid, 60 days, vs 5-ASA plus placebo. The procedure:
A double-blind, controlled, randomized study was carried out in patients affected by two simultaneous pathologies: ulcerative colitis and osteoarticolar disease (osteoarthritis, rheumatoid arthritis, extra-articular rheumatism).
20 patients were divided into 2 homogeneous groups of 10 patients each (Group A and Group B):
Group A was treated with 5-aminosalicylic acid 1200 mg/day and placebo
Group B was treated with 5-aminosalicylic acid […] and MED 15 1200 mg/day
The following clinical evaluations were performed at the beginning of the study (T0), T15, T30, and T60 (end of therapy):
1) endoscopic examination of intestinal mucosa
2) annotation of symptomatology referred by the patients.
The severity of these parameters was expressed by a score as follows: […]

Assay [2] concerns indomethacin-induced small intestine inflammation. Nature of the assay: Indomethacin-induced small intestine inflammation. The format is in vivo, rat. The procedure: (§1) Male Wistar rats, 180±20g quarantined for at least 5days and fasted for 18 h prior to the beginning of the trial (on a grid to avoid coprophagy) with free access to water.
The animals were treated with indomethacin (7.5 mg/Kg by subcutaneous administration in NaHCO3 5%) at T=0 and T=+1 day.
MED 15 (100 mg/Kg per os in 1% CMC) was administered according to two different treatments:
Scheme no. 1: T=0, +1 and 2 days
Scheme no. 2: T=0, +1, +2, +5, +6, +7 days
24 h after the last administration the animals were killed by cervical dislocation; the small intestine (from the pylorus to the ileocecal valve), removed and opened lengthwise, was washed in physiological solution at pH 7.4 for damage evaluation.
Considered parameters are: […]
myeloperoxidase (MPO), neutrophil indicator; malondialdehyde (MDA), oxidative process indicator. data were evaluated by Student's t-test

Assay [3] relates to TXB2 plasma levels. Briefly: TXB2 (thromboxane) determination in rat. The format is in vivo. Particulars: for TXB2 ng/ml ± S.E. / inhibition at 100 mg/kg: 100 mg/kg per os, blood 3 h after treatment; for TXB2 ng/ml ± S.E.: controls 174.1 ± 42.6; for % inhibition of TXB2 plasma levels: kinetics; for inhibition at 100 mg/kg: po, vs controls. The procedure:
(§2) Male New Zealand rabbits, 2000-3000 g [Stefano Morini, S. Polo D'Enza, RE Italy], quarantined for 5 days prior beginning of the trial (anti-piatelet effect). Male Wistar rats, 250±20 g [IFFA CREDO, Italy] randomized, divided into groups of 5 animals each and fasted for 16 h prior to treatment (thromboanemia determination).
The animals received per OS 100 mg/kg (1.5 ml/rat) MED 15 and (acetyl salicylic acid) suspended in 1% CMC, and controls received the vehicle only. […] Tromboxane content was determined in the serum thus obtained using a RIA kit [Amersham TRK780]. The results obtained can be evaluated with reference to the following tables and figures.

In assay [4] the test system is rabbit PRP (plasma rich in platelets). Briefly: Platelet aggregation on rabbit PRP, agonist arachidonic acid sodium salt. In kind it is cell-based. The following applies: Oryctolagus cuniculus. The procedure:
as §2
(§3) Blood was intracardially collected from rabbits, using as anticoagulant sodium citrate at a final concentration of 0.38% and centrifuged for 15′ at 150 g in order to obtain a plasma rich in platelets (PRP). PRP was used at a concentration of 3.5×10^8 platelet/ml. MED 15 and reference products were incubated with the PRP for 3′ at 37 C° prior to addition of the aggregating agent. Platelet aggregation induced by arachidonic acid, sodium salt [TAC (threshold aggregation concentration): 140 μm] and collagen (TAC: 28 μg/ml) was measured using an aggregometer (Chronolog model 500) according to the Born's method ([…]. Nature 1962; 194: 927-929) and was expressed as inhibition percentage with respect to the agonist mean response.

For assay [5] the test system is unchanged. Briefly: Platelet aggregation on rabbit PRP, agonist collagen. The format is cell-based. Particulars: Oryctolagus cuniculus. The procedure:
as §2, §3

Assay [6] relates to acetic acid-induced colitis. Briefly: Acetic acid-induced colitis. The format is in vivo, rat. The following applies: MED 15 100 mg/Kg per os at T-48 h, -24 h, -2 h; acetic acid controls 949±66. The procedure:
as §1
Colitis was induced in animals by administration of 5% acetic acid (1.5 ml/rat) in the distal colon lumen with an 8 cm cannula at T=0.
MED 15 (100 mg/Kg per os) was administered at T−48 h, −24 h and −2 h.
24 h after colitis induction, animals were killed by cervical dislocation and the colon removed and washed in physiological solution at pH 7.4, was examined for damage evaluation.
(§4) Considered parameters are:
malondialdehyde (MDA), oxidative process indicator.
(§5) data were evaluated by Student's t-test

The subject of assay [7] is TNB-induced colitis. Briefly: TNB-induced colitis. The format is in vivo, rat. The following applies: MED 15 100 mg/Kg per os T=0, +1, +2, +3 days. The procedure: as §1
Colitis was induced in animals by administration of 15 mg TNB (trinitrobenzosulphonic acid) in 0.25 ml of 30% ethanol in the colon lumen and with an 8 cm cannula at T=0.
MED 15 (100 mg/Kg per os in 1% CMC) was administered to:
5 h after the last administration the animals were killed by cervical dislocation, the colon (8 cm distal portion) removed for damage evaluation.
as §4
myeloperoxidase (MPO), neutrophil indicator;
as §5

The term inhibition denotes the change of the read-out against control, counted positive when it falls.

As to `COc1ccccc1OC(=O)CNC(=O)Cc1ccc(C(=O)c2ccc(C)cc2)n1C` [MED 15, 2-metoxyphenyl-1-methyl-5-p-methylbenzoyl-pirrol-2-acetamido acetate], in assay [1], the “effectiveness in ulcerative colitis (mucosal inflammation and symptomatology scores)” value was “more effective than 5-ASA”; the healing time entry is listed as “dramatically reduced compared to 5-ASA”. The “reduction in the number of ulcers” value in assay [2] (scheme no. 1 (acute phase, T=0, +1 and 2 days), MED 15 100 mg/Kg per os, vs indomethacin controls) is on record as 44.3%. Moreover, the score in assay [2] (scheme no. 1, MED 15 100 mg/Kg per os, indomethacin controls 7.62±1.84) was determined as 4.63±2.73. In addition, the “tissutal levels of MPO” value in assay [2] (scheme no. 1, after MED 15 treatment 100 mg/Kg per os) is recorded as “diminution”. Also, the “decrease of score value” in assay [2] (scheme no. 2 (prolonged), MED 15 100 mg/Kg per os) is recorded as 58.4%. The “decrease in number of ulcers” value in assay [2] (scheme no. 2 (prolonged, T=0, +1, +2, +5, +6, +7 days), MED 15 100 mg/Kg per os) is on record as 86.1%. Further, in assay [3], the “duration of the effect on TXB2 plasma levels” value was 24 h, the “TXB2 ng/ml ± S.E.” value came to 14.3 ± 1.3 ng/mL and the inhibition at 100 mg/kg is 91.8%. Moreover, the “% inhibition of TXB2 plasma levels” value in assay [3] (0.75 h) was 93.2%. In addition, the “% inhibition of TXB2 plasma levels” value in assay [3] (1.5 h) was determined as 90.8%. Besides, the “% inhibition of TXB2 plasma levels” value in assay [3] (3.0 h) stood at 91.4%. Further, in assay [3] (24.0 h), the “% inhibition of TXB2 plasma levels” value was 49.2%. For the same compound, the inhibition at 0.5 µM in assay [4] (0.5 μM) was 7.7%. Besides, the inhibition at 1.25 µM in assay [4] (1.25 μM) worked out at 100%. Moreover, in assay [4] (2.5 μM), the inhibition at 2.5 µM was found to be 100%. Besides, the inhibition at 5 µM in assay [4] (5.0 μM) is 100%. Moreover, the inhibition at 0.05 µM in assay [5] (0.05 μM) came out at 0%. The compound further displayed an inhibition at 0.1 µM in assay [5] (0.10 μM) of 34.3%. Besides, the inhibition at 0.39 µM in assay [5] (0.39 μM) was 100%. For the same compound, in assay [6], the malondialdehyde levels turned out to be 719 ± 60 nmol/g. Also, in assay [7], the “colon walls weight, change compared to TNB control” value was −28.6%; the “myeloperoxidase levels, change compared to TNB control” value is given as −33.1%; the “score, change compared to TNB control” value is listed as −35.2%.
Take `CC(=O)Oc1ccccc1C(=O)O` [ASA, acetylsalicylic acid, reference compound]: in assay [3], the “TXB2 ng/ml ± S.E.” value was 2.9 ± 1.1 ng/mL. For the same compound, in assay [3], the inhibition at 100 mg/kg stood at 98.3%. In addition, the inhibition at 25 µM turned out to be 0% in assay [4] (25.0 μM) and 33.7 ± 2.1% in assay [5] (25.0 μM). In addition, the inhibition at 50 µM in assay [4] (50.0 μM) came out at 83.3 ± 16.7%; in assay [5] (50.0 μM), 70.4 ± 14.9%. The inhibition at 100 µM in assay [4] (100.0 μM) and in assay [5] (100.0 μM) was 100% in each case. This compound also gave an inhibition at 12.5 µM in assay [5] (12.5 μM) of 18.4 ± 10.5%.
